The text below walks through data of US4103082A, “Aminocyclitol derivatives and process for producing the same” (priority 1975, dated 1978).

One test has as its system Pseudomonas 1007. As to the kind of experiment: paper disk method, inhibitory zone diameter. It counts as cell-based. Conditions: Pseudomonas, 1007, read-out: inhibitory zone diameter.
The next test deals with Mycobacterium 607. The test is described as follows: paper disk method, inhibitory zone diameter. It counts as cell-based. The settings on record: Mycobacterium, 607, read-out: inhibitory zone diameter.
The next test relates to Klebsiella 6. The test is described as follows: paper disk method, inhibitory zone diameter. It is filed as cell-based. The settings on record: Klebsiella, 6, read-out: inhibitory zone diameter.
Another test concerns E. coli K-12. As to the kind of experiment: paper disk method, inhibitory zone diameter. It is filed as cell-based. The settings on record: Escherichia coli, K12, read-out: inhibitory zone diameter.
In test [1] the test system is Bacillus subtilis ATCC 6633. The test is described as follows: paper disk method, inhibitory zone diameter. It is filed as cell-based. The settings on record: ATCC6633, read-out: inhibitory zone diameter.
Another test relates to Klebsiella 7. The test is described as follows: paper disk method, inhibitory zone diameter. It counts as cell-based. Conditions: Klebsiella, 7, read-out: inhibitory zone diameter.
The test system of test [2] is E. coli HL-1629 (Kanamycin-resistant strain). As to the kind of experiment: microbe, parasite or virus in culture. It is filed as cell-based. The settings on record: Escherichia coli, read-out: inhibitory zone diameter.
In test [3] the test system is Staphylococcus aureus 6538P. The test is described as follows: paper disk method, inhibitory zone diameter. Conditions: read-out: inhibitory zone diameter. It counts as cell-based.
The subject of test [4] is Staphylococcus aureus C73-10. As to the kind of experiment: antibacterial activity (Minimum Inhibitory Concentration). It is filed as cell-based. Conditions: Staphylococcus aureus, C7310.
Test [5] relates to Staphylococcus albus PCI-1200A. The description is as above. It is filed as cell-based. Conditions: Staphylococcus, PCI1200A.
Test [6] relates to Vibrio parahaemolyticus K-7. Described as above. It counts as cell-based. The settings on record: Vibrio parahaemolyticus, K7.
The subject of test [7] is Staphylococcus aureus 209P JC-1. The description is as above. It counts as cell-based. Conditions: Staphylococcus aureus, 209P.
Another test deals with Proteus species C73-25. The test is described as above. It is filed as cell-based.
The test system of a further test is Proteus morganii Kono. The test is described as above. It is filed as cell-based. Conditions: Morganella morganii.
Test [8] relates to Shigella dysenteriae Shigae. The test is described as follows: microbe, parasite or virus in culture. It is filed as cell-based.
Test [9] relates to Vibrio parahaemolyticus K-5. The test is described as follows: antibacterial activity (Minimum Inhibitory Concentration). It is filed as cell-based. Conditions: Vibrio parahaemolyticus, K5.
The test system of test [10] is Bacillus subtilis ATCC 6633. The description is as above. It counts as cell-based. The settings on record: Bacillus subtilis, ATCC6633.
Test [11] relates to Enterococcus species C73-17. The description is as above. It is filed as cell-based. The settings on record: Enterococcus, C7317.
The test system of test [12] is Bacillus anthracis No. 119. The test is described as follows: microbe, parasite or virus in culture. It counts as cell-based.
Test [13] concerns Salmonella species C73-30. The test is described as follows: antibacterial activity (Minimum Inhibitory Concentration). It is filed as cell-based. The settings on record: C7330.
Test [14] deals with Enterococcus species C73-33. The test is described as above. It is filed as cell-based. The settings on record: Enterococcus, C7333.
A further test relates to Proteus species C73-23. Described as above. It is filed as cell-based.
Test [15] has as its system Staphylococcus aureus C73-4. Described as above. It counts as cell-based. Conditions: Staphylococcus aureus, C734.
Test [16] has as its system Staphylococcus aureus C73-21. The test is described as above. It is filed as cell-based. Conditions: Staphylococcus aureus, C7321.
Another test relates to Proteus species C73-34. The description is as above. It counts as cell-based.
Test [17] has as its system Staphylococcus aureus Smith S-424. Described as above. It is filed as cell-based. Conditions: Staphylococcus aureus, SMITHS424.
The test system of another test is E. coli C73-4. The test is described as above. The settings on record: Escherichia coli, C734. It is filed as cell-based.
Test [18] relates to Vibrio parahaemolyticus K-3. The description is as above. It is filed as cell-based. The settings on record: Vibrio parahaemolyticus, K3.
The test system of the next test is E. coli C73-1. The description is as above. It is filed as cell-based. The settings on record: Escherichia coli, C731.
In another test the test system is Proteus species C73-33. Described as above. It is filed as cell-based.
Test [19] deals with Staphylococcus aureus No. 26. Described as above. It counts as cell-based. The settings on record: Staphylococcus aureus, NO.26.
Another test concerns Klebsiella pneumoniae. The test is described as above. It is filed as cell-based.
For the next test, the system named is E. coli C73-12. The test is described as above. The settings on record: Escherichia coli, C7312. It counts as cell-based.
The test system of test [20] is antibiotic-resistant microorganisms. Conditions: J. Antibiotics, 24 (10) 711, (1971); cited from earlier work.

In brackets after ≈: the same amount, converted by molar mass.

Turning to `NC[C@H]1O[C@H](O[C@H]2[C@H](O)[C@@H](O)[C@H](N)C[C@@H]2N)[C@H](N)[C@@H](O)[C@@H]1O` [Neamine, neamine, reference compound], the zone of inhibition at 2000 µg/mL with Pseudomonas 1007 stood at 0 mm. In the test on Mycobacterium 607, the zone of inhibition at 62.5 µg/mL was determined as 0 mm, the zone of inhibition at 125 µg/mL worked out at 0 mm, the zone of inhibition at 250 µg/mL was 14.8 mm and the zone of inhibition at 500 µg/mL was 20.4 mm. In the test with Mycobacterium 607, the zone of inhibition at 1000 µg/mL was 26.4 mm and the zone of inhibition at 2000 µg/mL was determined as 32.5 mm. For the same compound, in the test with Klebsiella 6, the zone of inhibition at 2000 µg/mL stood at 0 mm. In the test on E. coli K-12, the zone of inhibition at 7.8 µg/mL amounted to 0 mm, the zone of inhibition at 15.6 µg/mL amounted to 0 mm, the zone of inhibition at 31.2 µg/mL is 11.4 mm and the zone of inhibition at 62.5 µg/mL was 14.3 mm. Also, in the test with E. coli K-12, the zone of inhibition at 125 µg/mL was determined as 17.2 mm, the zone of inhibition at 250 µg/mL came to 20.4 mm, the zone of inhibition at 500 µg/mL worked out at 22.6 mm and the zone of inhibition at 1000 µg/mL was 25.2 mm. Further, in the test on E. coli K-12, the zone of inhibition at 2000 µg/mL was determined as 27.4 mm. In test [1], the zone of inhibition at 7.8 µg/mL turned out to be 11.5 mm, the zone of inhibition at 15.6 µg/mL stood at 14 mm, the zone of inhibition at 31.2 µg/mL stood at 17 mm and the zone of inhibition at 62.5 µg/mL was determined as 19.9 mm. Further, in test [1], the zone of inhibition at 125 µg/mL came to 23 mm, the zone of inhibition at 250 µg/mL stood at 25 mm, the zone of inhibition at 500 µg/mL was found to be 28.7 mm and the zone of inhibition at 1000 µg/mL worked out at 31 mm. In addition, the zone of inhibition at 2000 µg/mL in [1] turned out to be 33.5 mm. In addition, the zone of inhibition at 2000 µg/mL with Klebsiella 7 amounted to 0 mm. Moreover, in test [2], the zone of inhibition at 1000 µg/mL was determined as 0 mm and the zone of inhibition at 2000 µg/mL is 12.3 mm. For the same compound, in [3], the zone of inhibition at 7.8 µg/mL is 0 mm, the zone of inhibition at 15.6 µg/mL amounted to 0 mm, the zone of inhibition at 31.2 µg/mL was 0 mm and the zone of inhibition at 62.5 µg/mL was 10 mm. Besides, in test [3], the zone of inhibition at 125 µg/mL came out at 13 mm, the zone of inhibition at 250 µg/mL came to 15.3 mm, the zone of inhibition at 500 µg/mL was 18.3 mm and the zone of inhibition at 1000 µg/mL turned out to be 20.7 mm. Besides, the zone of inhibition at 2000 µg/mL in test [3] worked out at 22.8 mm.
Consider `NC[C@H]1O[C@H](O[C@H]2[C@H](O)[C@@H](O)[C@H](N)C[C@@H]2N)[C@H](N)[C@@H](O)[C@@H]1O` [Neomycin A, reference compound], for which the MIC in test [4] was determined as 3.13 µg/mL (≈ 9.71 µM); in test [5], 0.78 µg/mL (≈ 2.42 µM); in test [6] it was 50 µg/mL (≈ 155 µM); in test [7], 0.78 µg/mL (≈ 2.42 µM); with Proteus species C73-25, 6.25 µg/mL (≈ 19.4 µM); with Proteus morganii Kono, 12.5 µg/mL (≈ 38.8 µM). The MIC in test [8] turned out to be 12.5 µg/mL (≈ 38.8 µM); in [9], 50 µg/mL (≈ 155 µM); in test [10] it was 1.56 µg/mL (≈ 4.84 µM); in test [11] it was 100 µg/mL (≈ 310 µM); in test [12], 12.5 µg/mL (≈ 38.8 µM); in test [13] it was 25 µg/mL (≈ 77.6 µM). Moreover, the MIC in test [14] came out at 12.5 µg/mL (≈ 38.8 µM); in the test with Proteus species C73-23 it was 25 µg/mL (≈ 77.6 µM); in [15], 3.13 µg/mL (≈ 9.71 µM); in [16], 0.78 µg/mL (≈ 2.42 µM); against Proteus species C73-34 it was 25 µg/mL (≈ 77.6 µM); in test [17], 1.56 µg/mL (≈ 4.84 µM). The MIC came to 25 µg/mL (≈ 77.6 µM) against E. coli C73-4; 1.56 µg/mL (≈ 4.84 µM) in [18]; 25 µg/mL (≈ 77.6 µM) in the test on E. coli C73-1; 100 µg/mL (≈ 310 µM) against Proteus species C73-33; 3.13 µg/mL (≈ 9.71 µM) in test [19]; 12.5 µg/mL (≈ 38.8 µM) against Klebsiella pneumoniae. Besides, in the test with E. coli C73-12, the MIC worked out at 12.5 µg/mL (≈ 38.8 µM).
Take `NC[C@@H]1CC[C@@H](N)[C@@H](O[C@H]2[C@H](O)[C@@H](O)[C@H](N)C[C@@H]2N)O1` [3',4'-deoxyneamine]: the “antimicrobial activities against antibiotic-resistant microorganisms” value in test [20] is given as “exhibits antimicrobial activities against various antibiotic-resistant microorganisms”.
